From ChEMBL document CHEMBL5131394, “Structure-activity and mechanistic studies of non-peptidic inhibitors of the PLK1 polo box domain identified through REPLACE” (Eur J Med Chem, 2022)

Experiments:
[1] = molecular target: T1, Serine/threonine-protein kinase PLK1 (Homo sapiens, UniProt P53350); experiment: Binding affinity to recombinant human N-terminal GST-tagged PLK1-PBD (367 to 603 end residue) expressed in Escherichia coli using MAGPMQS[pT]PLNGAKK as substrate incubated for 45 mins by fluorescence polarization assay
PC-3 [2] = experiment: Antiproliferative activity against human PC-3 cells assessed as cell viability measured after 72 hrs by MTT assay; format: functional, cell-based; conditions: PC-3, 72 h
A549 = experiment: Antiproliferative activity against human A549 cells assessed as cell viability measured after 72 hrs by MTT assay; format: functional, cell-based; conditions: A549, 72 h
[3] = Antiproliferative activity against human RPE cells expressing wild-type PLK1 assessed as reduction in cell viability measured after 72 hrs by MTT assay; format: functional, cell-based
[4] = Antiproliferative activity against human HCT116-p53-null cells assessed as cell viability measured after 72 hrs by MTT assay; format: functional, cell-based
[5] = Antiproliferative activity against human RPE cells expressing PLK1 C67V mutant assessed as reduction in cell viability measured after 72 hrs by MTT assay; format: functional, cell-based
HeLa = experiment: Antiproliferative activity against human HeLa cells assessed as cell viability measured after 72 hrs by MTT assay; format: functional, cell-based
[6] = Antiproliferative activity against human p53HCT116 cells assessed as cell viability measured after 72 hrs by MTT assay; format: functional, cell-based; conditions: p53HCT116, 72 h
[7] = molecular target: T1, Serine/threonine-protein kinase PLK1; experiment: Binding affinity to full length PLK1 in human PC-3 cells assessed as stabilized protein incubated for 2 hrs followed by aggregation temperature at 56.2 degC by […] analysis; format: cell-based
PC-3 [8] = experiment: Induction of mitotic arrest in human PC-3 cells assessed as accumulation of cells at G2/M phase; format: functional

T1 sequence (P53350 whole entry): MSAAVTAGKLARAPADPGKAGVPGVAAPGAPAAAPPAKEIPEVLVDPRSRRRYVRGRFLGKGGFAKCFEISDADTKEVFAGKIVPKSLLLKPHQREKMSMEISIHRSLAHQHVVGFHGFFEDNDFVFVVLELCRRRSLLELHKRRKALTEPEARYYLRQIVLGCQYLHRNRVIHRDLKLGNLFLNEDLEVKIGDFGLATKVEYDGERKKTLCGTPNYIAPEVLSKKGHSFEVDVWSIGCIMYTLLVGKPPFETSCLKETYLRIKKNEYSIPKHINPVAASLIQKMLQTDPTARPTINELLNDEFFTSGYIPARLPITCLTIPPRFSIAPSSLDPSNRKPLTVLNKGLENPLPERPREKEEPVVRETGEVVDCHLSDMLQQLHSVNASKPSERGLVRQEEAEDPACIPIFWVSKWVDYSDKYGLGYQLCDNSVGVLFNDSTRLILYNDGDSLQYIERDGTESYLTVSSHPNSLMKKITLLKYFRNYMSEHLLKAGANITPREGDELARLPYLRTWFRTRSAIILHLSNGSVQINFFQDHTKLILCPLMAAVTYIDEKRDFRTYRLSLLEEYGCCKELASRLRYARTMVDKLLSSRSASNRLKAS

| SMILES | IC50 [1] [µM] | also measured |
| --- | --- | --- |
| CCCCCc1ccc(C(=O)Nc2ccccc2C(=O)O)cc1 | 224 |  |
| CCCCCCCCc1ccc(CCNc2ccccc2C(=O)O)cc1 | 118 |  |
| CCCCCCCCc1ccc(C(=O)Nc2c(O)cccc2C(=O)O)cc1 | 12 |  |
| CCCCCCCCc1ccc(CNc2ccccc2C(=O)O)cc1 | 9.8 |  |
| CCCCCCCCc1ccc(CNc2ccc(C)cc2C(=O)O)cc1 | > 600 |  |
| CCCCCCCCc1ccc(CNc2cccc(CC)c2)cc1 | > 600 |  |
| CCCCCCCCCCCCc1ccc(C(=O)Nc2ccccc2C(=O)O)cc1 |  | IC50 (PC-3 [2]): 14 µM |
| CCCCCCCCc1ccc(CNc2cccc(OP(=O)(O)O)c2)cc1 | > 600 |  |
| CCCCCCCCc1ccc(C(=O)Nc2ccccc2[N+](=O)[O-])cc1 | > 600 |  |
| CCCCCCCCc1ccc(C(=O)Nc2ccccc2C(=O)O)cc1 |  | IC50 (A549): 2.8 µM; IC50 [3]: 33 µM; IC50 [4]: 8 µM; IC50 [5]: 25.9 µM |
| CCCCCCCCc1ccc(C(=O)Nc2ccccc2S(N)(=O)=O)cc1 | 259 |  |
| CCCCCCCCc1ccc(C(=O)Nc2ccccc2B(O)O)cc1 | > 600 |  |
| CCCCCCCCc1ccc(C(=O)Nc2ccc(OC)cc2C(=O)O)cc1 | 5.9 | IC50 (HeLa): 8 µM |
| CCCCCCCCc1ccc(C(=O)Nc2ccc(C)cc2C(=O)O)cc1 | 2.2 | IC50 [6]: 17.4 µM; IC50 (A549): 5.1 µM; IC50 [3]: 13.4 µM; IC50 (PC-3 [2]): 16.3 µM; EC50 [7]: 0.82 µM; IC50 [4]: 10 µM; IC50 [5]: 12.6 µM |
| CCCCCCCCc1ccc(C(=O)Nc2cccc(OC)c2C(=O)O)cc1 | 29.6 |  |
| CCCCCCCCc1ccc(C(=O)Nc2cccc([N+](=O)[O-])c2C(=O)O)cc1 | 6.1 |  |
| CCCCCCCCc1ccc(C(=O)Nc2cccc(F)c2C(=O)O)cc1 | 11.1 | IC50 (A549): 2.9 µM; IC50 [3]: 8.79 µM; IC50 (PC-3 [2]): 11.6 µM; IC50 [4]: 10 µM; IC50 [5]: 9.1 µM |
| CCCCCCCCc1ccc(C(=O)Nc2cccc(O)c2C(=O)O)cc1 | 7.9 |  |
| CCCCc1ccc(C(=O)Nc2ccccc2C(=O)O)cc1 | > 600 |  |
| CCCCCCCCc1ccc(C(=O)Nc2cc(F)cc(F)c2C(=O)O)cc1 | 30.6 |  |
| CCCCCCCCc1ccc(CNc2cccc(F)c2C(=O)O)cc1 | 18.8 |  |
| CCCCCCCCc1ccc(CNc2cc(C)ccc2C(=O)O)cc1 | 21.7 |  |
| CCCCCCCCc1ccc(C(=O)Nc2ccccc2C(=O)OCC)cc1 | > 600 | IC50 (PC-3 [2]): > 100 µM; IC50 (HeLa): > 100 µM |
| CCCCCCCCc1ccc(C(=O)Nc2cccc(C(F)(F)F)c2C(=O)O)cc1 | 29.4 |  |
| CCCCCCCCc1ccc(C(=O)Nc2cccc(OP(=O)(O)O)c2)cc1 | 98.3 |  |
| CCCCCCCCc1ccc(C(=O)Nc2cccc(Cl)c2C(=O)O)cc1 | 25.3 |  |
| CCCCCCCCc1ccc(C(=O)Nc2cc(C)ccc2C(=O)O)cc1 | 4 | IC50 [6]: 24.2 µM; IC50 (A549): 3.5 µM; IC50 (PC-3 [2]): 18.8 µM; IC50 [4]: 11.4 µM |
| CC[C@@H]1C(=O)N(C)c2cnc(Nc3ccc(C(=O)NC4CCN(C)CC4)cc3OC)nc2N1C1CCCC1 [BI-2536] |  | Activity (PC-3 [8]): >75% |
